Biological target: T1, hGPR120 (Homo sapiens, UniProt Q5NUL3)
T1 construct: expressed in transfected cells; host or cells: CHO-K1
T1 sequence (Q5NUL3 1-361): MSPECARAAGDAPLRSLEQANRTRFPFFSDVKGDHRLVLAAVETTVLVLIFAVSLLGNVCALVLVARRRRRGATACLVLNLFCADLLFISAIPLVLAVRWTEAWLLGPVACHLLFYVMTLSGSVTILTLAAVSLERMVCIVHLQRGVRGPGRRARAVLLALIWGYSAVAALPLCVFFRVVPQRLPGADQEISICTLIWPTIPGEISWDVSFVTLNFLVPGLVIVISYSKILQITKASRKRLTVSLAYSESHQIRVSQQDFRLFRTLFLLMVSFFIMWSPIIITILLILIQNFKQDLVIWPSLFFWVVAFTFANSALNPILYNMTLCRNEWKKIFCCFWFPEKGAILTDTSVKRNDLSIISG
Test: Measurement of Activity of GPR120 Agonist (Cell-Based Assay), Calcium 5 dye fluorescence
Conditions: CHO-K1 cells expressing Ga16 and hGPR120
Method in brief: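 CHO-K1 cells co-expressing Gα16 and hGPR120 were seeded, cultured 18 h at 37 °C, then loaded 1 h with Calcium 5 dye. Serially diluted agonists (final 0.5% DMSO) were added and fluorescence read at Ex 485/Em 525 nm, expressed as percent relative to 1% DMSO-only wells.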

Row | Structure (SMILES) | EC50 [nM]
1 | O=C(O)CCCOc1c(F)cc(-c2cncc(OC3CCC3)n2)cc1F [Example 398, 4-[4-[6-(cyclobutoxy)pyrazin-2-yl]-2,6-difluoro-phenoxy]butanoic acid] | < 200
2 | O=C(O)CCc1ccc2cc(-c3cccc(OC4CCC4)n3)ccc2c1 [Example 148, 3-[6-(6-cyclobutoxy-pyridin-2-yl)-naphthalen-2-yl]-propanoic acid] | 200 to 2000
3 | O=C(O)CCCCc1ccc(-c2cccc(OC3CCC3)n2)cc1F [Example 537, 5-[4-(6-cyclobutoxy-pyridin-2-yl)-2-fluoro-phenyl]-pentanoic acid] | < 200
4 | Oc1cc(CCc2c(F)cc(-c3cccnc3OC3CCCC3)cc2F)on1 [Example 87, 5-[2-[4-[2-(cyclopentoxy)-3-pyridyl]-2,6-difluoro-phenyl]ethyl]isoxazol-3-ol] | < 200
5 | O=C(O)CCCSc1ccc(-c2cccc3c2OC(F)(F)O3)cc1 [Example 155, 4-[4-(2,2-difluoro-benzo[1,3]dioxol-4-yl)-phenylsulfanyl]-butyric acid] | < 200
6 | O=C(O)CCC1CCc2cc(-c3cccnc3OC3CCC3)ccc2S1 (centres unmarked) [Example 278, 3-[6-(2-cyclobutoxy-pyridin-3-yl)-thiochroman-2-yl]-propionic acid] | < 200
7 | O=C(O)CCCOc1c(F)cc(-c2ccc3cc[nH]c3c2)cc1F [Example 557, 4-[2,6-difluoro-4-(1H-indol-6-yl)-phenoxy]-butanoic acid] | 2000 to 20000
8 | O=C(O)CCC1CCc2cc(-c3cccnc3OC3CCC3)ccc2O1 (centres unmarked) [Example 277, 3-[6-(2-cyclobutoxy-pyridin-3-yl)-chroman-2-yl]-propionic acid] | 200 to 2000
9 | COc1ccc(-c2cc(F)c(OCCCC(=O)O)c(F)c2)nc1OC1CCC1 [Example 455, 4-[4-[6-(cyclobutoxy)-5-methoxy-2-pyridyl]-2,6-difluoro-phenoxy]butanoic acid] | < 200

Further lines, results first:

Row | EC50 [nM] | Structure (SMILES)
10 | < 200 | CCCOc1cc(C)nc(-c2cc(F)c(N3CCC(CC(=O)O)C3)c(F)c2)n1 (centres unmarked) [Example 589, {1-[2,6-difluoro-4-(4-methyl-6-propoxy-pyrimidin-2-yl)-phenyl]-pyrrolidin-3-yl}-acetic acid]
11 | 200 to 2000 | Cc1cc(Oc2ccc(F)c(F)c2)nc(-c2cc(F)c(N3CCC(CC(=O)O)CC3)c(F)c2)n1 [Example 608, 2-[1-[2,6-difluoro-4-[4-(3,4-fluorophenoxy)-6-methyl-pyrimidin-2-yl]phenyl]-4-piperidyl]acetic acid]
12 | < 200 | O=C(O)CCCOc1c(F)cc(-c2cccc(OC3CCCC3)n2)cc1Cl [Example 400, 4-[2-chloro-4-(6-cyclopentyloxy-pyridin-2-yl)-6-fluoro-phenoxy]-butyric acid]
13 | 200 to 2000 | O=C(O)CCCC1(c2c(F)cc(-c3cccnc3OCC3CCC3)cc2F)CC1 [Example 169, 4-{1-[4-(2-cyclobutylmethoxy-pyridin-3-yl)-2,6-difluoro-phenyl]-cyclopropyl}-butyric acid]
14 | 200 to 2000 | CNc1ccccc1-c1cc(F)c(N(C)CCCC(=O)O)c(F)c1 [Example 222, 4-[(3,5-difluoro-2′-methylamino-biphenyl-4-yl)-methyl-amino]-butyric acid]
15 | 200 to 2000 | O=C(O)CC1CCN(c2c(F)cc(-c3cccc(OCC4CC4)n3)cc2Cl)CC1 [Example 307, 2-[1-[2-chloro-4-[6-(cyclopropylmethoxy)-2-pyridyl]-6-fluoro-phenyl]-4-piperidyl]acetic acid]
16 | 200 to 2000 | CCOc1cccc(-c2cc(F)c(N3CCC(CCC(=O)O)CC3)c(F)c2)n1 [Example 622, 3-{1-[4-(6-ethoxy-pyridin-2-yl)-2,6-difluoro-phenyl]-piperidin-4-yl}-propionic acid]
17 | 200 to 2000 | O=C(O)CC1CCN(c2c(F)cc(-c3csc(COCC4CC4)c3)cc2F)CC1 [Example 567, {1-[4-(5-cyclopropylmethoxymethyl-thiophen-3-yl)-2,6-difluoro-phenyl]-piperidin-4-yl}-acetic acid]

— US11261186B2, “Biaryl derivative as GPR120 agonist” (LG CHEM, LTD., priority 2014, dated 2022)
